Test results taken from patent US20240150362A1, “Substituted Pyrrolotriazines” (Molecure S.A., priority 2022, published 2024).
Where a name gives a salt, the structure may show the parent alone.

These compounds were tested against T1, full-length USP7 (Homo sapiens, UniProt Q93009) (assay: Enzymatic assay to determine IC50 of USP7 inhibitors (Ubiquitin-Rhodamine 110 cleavage)). Details: full-length USP7 0.5-1.0 nM, 0.5 μM Ubiquitin-Rhodamine 110, 30-60 min at 25° C.
T1 construct: A 45 μl reaction volume containing full-length USP7 (0.5-1.0 nM)
T1 sequence (Q93009 whole entry): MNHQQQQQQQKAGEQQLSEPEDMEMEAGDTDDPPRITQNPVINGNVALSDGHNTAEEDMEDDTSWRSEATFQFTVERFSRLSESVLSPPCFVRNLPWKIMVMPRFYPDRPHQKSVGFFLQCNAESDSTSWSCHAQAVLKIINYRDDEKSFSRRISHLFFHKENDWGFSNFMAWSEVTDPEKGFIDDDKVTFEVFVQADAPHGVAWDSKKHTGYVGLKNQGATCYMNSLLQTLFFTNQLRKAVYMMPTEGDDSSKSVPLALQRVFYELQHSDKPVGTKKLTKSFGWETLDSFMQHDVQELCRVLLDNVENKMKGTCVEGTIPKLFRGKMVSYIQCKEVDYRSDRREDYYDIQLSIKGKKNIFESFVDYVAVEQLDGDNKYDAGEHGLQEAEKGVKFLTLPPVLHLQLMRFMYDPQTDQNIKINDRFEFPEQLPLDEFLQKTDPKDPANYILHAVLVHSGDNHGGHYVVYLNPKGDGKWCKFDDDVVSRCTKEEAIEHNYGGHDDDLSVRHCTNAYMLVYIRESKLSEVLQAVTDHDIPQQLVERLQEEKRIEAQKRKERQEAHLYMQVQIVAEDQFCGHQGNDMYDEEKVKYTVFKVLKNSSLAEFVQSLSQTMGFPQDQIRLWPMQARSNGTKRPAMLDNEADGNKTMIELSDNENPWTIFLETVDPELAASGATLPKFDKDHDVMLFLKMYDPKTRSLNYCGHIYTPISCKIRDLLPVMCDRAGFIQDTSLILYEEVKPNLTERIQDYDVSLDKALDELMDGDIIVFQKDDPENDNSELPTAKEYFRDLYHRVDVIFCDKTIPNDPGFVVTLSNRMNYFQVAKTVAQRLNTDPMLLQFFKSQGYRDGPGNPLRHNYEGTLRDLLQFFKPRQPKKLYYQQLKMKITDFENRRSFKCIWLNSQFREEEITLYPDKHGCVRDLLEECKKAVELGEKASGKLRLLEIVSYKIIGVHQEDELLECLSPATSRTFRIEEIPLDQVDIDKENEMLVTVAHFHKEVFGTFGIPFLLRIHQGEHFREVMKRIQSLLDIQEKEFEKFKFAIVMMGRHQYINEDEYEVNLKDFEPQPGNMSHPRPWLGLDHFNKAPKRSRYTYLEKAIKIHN
Assay type: biochemical
Procedure: Enzymatic Assay to Determine IC50 of USP7 Inhibitors
The IC50 is the concentration of an inhibitor where the measured enzyme activity is reduced by half. In the case of USP7 deubiquitinase, the IC50 of an USP7 inhibitor is the molar concentration of the compound that inhibits 50% of the activity observed in a USP7-mediated-ubiquitin-rhodamine cleavage assay. For the inhibitors disclosed herein, their potency was measured using the following method.
A 45 μl reaction volume containing full-length USP7 (0.5-1.0 nM) in 50 mM HEPES pH 7.5, 150 mM NaCl, 2 mM DTT, 1 mg/ml BSA and 0.05% Tween20 was assembled in wells of 96 well half area black flat bottom plates. Test compounds were first dissolved to 30 mM stocks in DMSO and subsequently introduced to enzyme 15 min after USP7 incubation with DTT at room temperature. The enzymatic reaction was started by adding 0.5 μM Ubiquitin-Rhodamine 110 (final concentration) and allowed to proceed for 30-60 min at 25° C., 250 RPM shaking before Rhodamine fluorescence (485 nm excitation/535 nm emission) was measured using Tecan Spark M10 plate reader. The IC50 values were determined by data fitting to variable slope model four-parameter dose-response curve using GraphPad 7.05.

| SMILES | IC50 |
| --- | --- |
| CC1(C)C2C(=O)N(Cc3cc4c(-c5cc(Cl)cc6c5N(C5CCNC5)CCO6)ncnn4c3)C(=O)C21 (stereo not drawn) [Example 55, 3-((4-(7-chloro-4-(pyrrolidin-3-yl)-3,4-dihydro-2H-benzo[b][1,4]oxazin-5-yl)pyrrolo[2,1-f][1,2,4]triazin-6-yl)methyl)-6,6-dimethyl-3-azabicyclo[3.1.0]hexane-2,4-dione hydrochloride] | < 500 nM |
| Cc1cc(Cl)cc(-c2ncnn3cc(CN4C(=O)C5C(C4=O)C5(C)C)cc23)c1OCC1(C)CCNCC1 (stereo not drawn) [Example 58, 3-((4-(5-chloro-3-methyl-2-((4-methylpiperidin-4-yl)methoxy)phenyl)pyrrolo[2,1-f][1,2,4]triazin-6-yl)methyl)-6,6-dimethyl-3-azabicyclo[3.1.0]hexane-2,4-dione hydrochloride] | < 500 nM |
| Cc1cc(Cl)cc(-c2ncnn3cc(Cn4c(=O)ccn(C)c4=O)cc23)c1CC1CNC[C@H](C)O1 (stereo partly drawn) [Example 59, 3-((4-(5-chloro-3-methyl-2-(((6S)-6-methylmorpholin-2-yl)methyl)phenyl)pyrrolo[2,1-f][1,2,4]triazin-6-yl)methyl)-1-methylpyrimidine-2,4(1H,3H)-dione hydrochloride] | < 500 nM |
| Cn1ccc(=O)n(Cc2cc3c(-c4cc(Cl)cc5ccn(CC6(F)CCNCC6)c45)ncnn3c2)c1=O [Example 61, 3-((4-(5-chloro-1-((4-fluoropiperidin-4-yl)methyl)-1H-indol-7-yl)pyrrolo[2,1-f][1,2,4]triazin-6-yl)methyl)-1-methylpyrimidine-2,4(1H,3H)-dione hydrochloride] | < 500 nM |
| Cc1cc(Cl)cc(-c2ncnn3cc(Cn4c(=O)ccn(CC(F)(F)F)c4=O)cc23)c1CC1CNC[C@H](C)O1 (stereo partly drawn) [Example 62, 3-((4-(5-chloro-3-methyl-2-(((6S)-6-methylmorpholin-2-yl)methyl)phenyl)pyrrolo[2,1-f][1,2,4]triazin-6-yl)methyl)-1-(2,2,2-trifluoroethyl)pyrimidine-2,4(1H,3H)-dione hydrochloride] | < 500 nM |
| CC1(C)C2C(=O)N(Cc3cc4c(-c5cc(Cl)cc6c5N(CC5(F)CCNCC5)CCC6)ncnn4c3)C(=O)C21 (stereo not drawn) [Example 63, 3-((4-(6-chloro-1-((4-fluoropiperidin-4-yl)methyl)-1,2,3,4-tetrahydroquinolin-8-yl)pyrrolo[2,1-f][1,2,4]triazin-6-yl)methyl)-6,6-dimethyl-3-azabicyclo[3.1.0]hexane-2,4-dione hydrochloride] | < 500 nM |
| O=c1ccn(CC(F)(F)F)c(=O)n1Cc1cc2c(-c3cc(Cl)cc4ccn(CC5(F)CCNCC5)c34)ncnn2c1 [Example 70, 3-((4-(5-chloro-1-((4-fluoropiperidin-4-yl)methyl)-1H-indol-7-yl)pyrrolo[2,1-f][1,2,4]triazin-6-yl)methyl)-1-(2,2,2-trifluoroethyl)pyrimidine-2,4(1H,3H)-dione dihydrochloride] | < 500 nM |
| Cc1cc(Cl)cc(-c2ncnn3cc(CN4C(=O)C5C(C4=O)C5(C)C)cc23)c1NCC1(C)CCNCC1 (stereo not drawn) [Example 78, 3-((4-(5-chloro-3-methyl-2-(((4-methylpiperidin-4-yl)methyl)amino)phenyl)pyrrolo[2,1-f][1,2,4]triazin-6-yl)methyl)-6,6-dimethyl-3-azabicyclo[3.1.0]hexane-2,4-dione dihydrochloride] | < 500 nM |
| Cc1cc(Cl)cc(-c2ncnn3cc(CN4C(=O)C5C(C4=O)C5(C)C)cc23)c1NCC1(F)CCNCC1 (stereo not drawn) [Example 80, 3-((4-(5-chloro-2-(((4-fluoropiperidin-4-yl)methyl)amino)-3-methylphenyl)pyrrolo[2,1-f][1,2,4]triazin-6-yl)methyl)-6,6-dimethyl-3-azabicyclo[3.1.0]hexane-2,4-dione dihydrochloride] | < 500 nM |
| C[C@@H]1CN(C2CCNC2)c2c(cc(Cl)cc2-c2ncnn3cc(CN4C(=O)C5C(C4=O)C5(C)C)cc23)O1 (stereo partly drawn) [Example 93, 3-((4-((2R)-7-chloro-2-methyl-4-(pyrrolidin-3-yl)-3,4-dihydro-2H-benzo[b][1,4]oxazin-5-yl)pyrrolo[2,1-f][1,2,4]triazin-6-yl)methyl)-6,6-dimethyl-3-azabicyclo[3.1.0]hexane-2,4-dione hydrochloride] | < 500 nM |

Continued, values first:

| IC50 | SMILES |
| --- | --- |
| < 500 nM | C[C@H]1CN(C2CCNC2)c2c(cc(Cl)cc2-c2ncnn3cc(CN4C(=O)C5C(C4=O)C5(C)C)cc23)O1 (stereo partly drawn) [Example 94, 3-((4-((2S)-7-chloro-2-methyl-4-(pyrrolidin-3-yl)-3,4-dihydro-2H-benzo[b][1,4]oxazin-5-yl)pyrrolo[2,1-f][1,2,4]triazin-6-yl)methyl)-6,6-dimethyl-3-azabicyclo[3.1.0]hexane-2,4-dione hydrochloride] |
| < 500 nM | Cc1cc(Cl)cc(-c2ncnn3cc(Cn4c(=O)ccn(CC(F)F)c4=O)cc23)c1CC1CNC[C@H](C)O1 (stereo partly drawn) [Example 95, 3-((4-(5-chloro-3-methyl-2-(((6S)-6-methylmorpholin-2-yl)methyl)phenyl)pyrrolo[2,1-f][1,2,4]triazin-6-yl)methyl)-1-(2,2-difluoroethyl)pyrimidine-2,4(1H,3H)-dione hydrochloride] |
| < 500 nM | Cc1cc(Cl)cc(-c2ncnn3cc(Cn4c(=O)ccn(CCF)c4=O)cc23)c1CC1CNC[C@H](C)O1 (stereo partly drawn) [Example 101, 3-((4-(5-chloro-3-methyl-2-(((6S)-6-methylmorpholin-2-yl)methyl)phenyl)pyrrolo[2,1-f][1,2,4]triazin-6-yl)methyl)-1-(2-fluoroethyl)pyrimidine-2,4(1H,3H)-dione hydrochloride] |
| < 500 nM | Cc1cc(Cl)cc(-c2ncnn3cc(CN4C(=O)CCN(C)C4=O)cc23)c1CC1CNC[C@H](C)O1 (stereo partly drawn) [Example 109, 3-((4-(5-chloro-3-methyl-2-(((6S)-6-methylmorpholin-2-yl)methyl)phenyl)pyrrolo[2,1-f][1,2,4]triazin-6-yl)methyl)-1-methyldihydropyrimidine-2,4(1H,3H)-dione hydrochloride] |
| < 500 nM | Cc1cc(Cl)cc(-c2ncnn3cc(Cn4c(=O)ccn(C(C)C)c4=O)cc23)c1CC1CNC[C@H](C)O1 (stereo partly drawn) [Example 111, 3-((4-(5-chloro-3-methyl-2-(((6S)-6-methylmorpholin-2-yl)methyl)phenyl)pyrrolo[2,1-f][1,2,4]triazin-6-yl)methyl)-1-isopropylpyrimidine-2,4(1H,3H)-dione hydrochloride] |
| < 500 nM | Cn1ccc(=O)n(Cc2cc3c(-c4cc(Cl)cc(Cl)c4CC4CNCCO4)ncnn3c2)c1=O (stereo not drawn) [Example 118, 3-((4-(3,5-dichloro-2-(morpholin-2-ylmethyl)phenyl)pyrrolo[2,1-f][1,2,4]triazin-6-yl)methyl)-1-methylpyrimidine-2,4(1H,3H)-dione hydrochloride] |
| < 500 nM | O=c1cc[nH]c(=O)n1Cc1cc2c(-c3cc(Cl)cc4ccn(CC5(F)CCNCC5)c34)ncnn2c1 [Example 130, 3-((4-(5-chloro-1-((4-fluoropiperidin-4-yl)methyl)-1H-indol-7-yl)pyrrolo[2,1-f][1,2,4]triazin-6-yl)methyl)pyrimidine-2,4(1H,3H)-dione hydrochloride] |
| < 500 nM | Cl.[2H]C([2H])([2H])n1ccc(=O)n(Cc2cc3c(-c4cc(Cl)cc5ccn(CC6(F)CCNCC6)c45)ncnn3c2)c1=O [Example 131, 3-((4-(5-chloro-1-((4-fluoropiperidin-4-yl)methyl)-1H-indol-7-yl)pyrrolo[2,1-f][1,2,4]triazin-6-yl)methyl)-1-(methyl-d3)pyrimidine-2,4(1H,3H)-dione hydrochloride] |
